According to publication PMC9316523, “Design, Synthesis and Molecular Docking of Novel Acetophenone-1,2,3-Triazoles Containing Compounds as Potent Enoyl-Acyl Carrier Protein Reductase (InhA) Inhibitors” (Pharmaceuticals, 2022):
Values after ≈ are worked out from the molar mass of the structure shown. Read-outs that look alike come from different tables or passages of the source.

What was measured:
M. tuberculosis InhA = target: T1, M. tuberculosis InhA (Mycobacterium tuberculosis, UniProt P9WGR1); assay: InhA enzymatic inhibition assay (NADH oxidation at 340 nm); assay type: biochemical
T1 construct: made in house; host or cells: E. coli

[1] = tested on: Mycobacterium tuberculosis; details: cited from earlier work
[2] = target: enoyl-acyl carrier protein reductase InhA enzyme; parameters: method as in PMID 32987135; details: cited from earlier work
[3] = 70 nM InhA, 2 h pre-incubation, 25 °C, pH 6.8, read-out: InhA inhibition IC50

T1 sequence (P9WGR1 whole entry, looked up): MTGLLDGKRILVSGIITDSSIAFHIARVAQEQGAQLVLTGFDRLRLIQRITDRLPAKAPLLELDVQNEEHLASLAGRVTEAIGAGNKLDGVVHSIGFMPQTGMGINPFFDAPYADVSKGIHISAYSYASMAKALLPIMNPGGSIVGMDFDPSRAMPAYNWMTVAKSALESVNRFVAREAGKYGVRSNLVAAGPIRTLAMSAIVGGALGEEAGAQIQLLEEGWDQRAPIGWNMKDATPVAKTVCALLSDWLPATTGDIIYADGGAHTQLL

## CO[C@H]1/C=C/O[C@@]2(C)Oc3c(C)c(O)c4c(O)c(c(/C=N/N5CCN(C)CC5)c(O)c4c3C2=O)NC(=O)/C(C)=C\C=C\[C@H](C)[C@H](O)[C@@H](C)[C@@H](O)[C@@H](C)[C@H](OC(C)=O)[C@@H]1C [Rifampicin, reference compound]
M. tuberculosis InhA; [3]
  IC50: 8500 nM
M. tuberculosis InhA
  inhibition at 10 µM: 58.8%

## COc1ccccc1NC(=O)Cn1cc(COc2ccc3c(c2)CCC3)nn1 [Lead structure C]
[1]
  MIC: 6.25 µg/mL (≈ 16.5 µM)

## CC(=O)c1ccc(OCc2cn(CC(=O)NCc3ccc(F)cc3)nn2)cc1 [Compound 12, 2-(4-((4-Acetylphenoxy)methyl)-1H-1,2,3-triazol-1-Yl)-N-(4-fluorobenzyl)acetamide]
other
  melting point: 165 to 166 °C
M. tuberculosis InhA; [3]
  IC50: 41 nM
M. tuberculosis InhA
  inhibition at 10 µM: 100%

## CC(=O)c1ccc(OCc2cn(CC(=O)NCc3ccc(C)cc3)nn2)cc1 [Compound 13, 2-(4-((4-Acetylphenoxy)methyl)-1H-1,2,3-triazol-1-Yl)-N-(4-methylbenzyl)acetamide]
other
  melting point: 180 to 182 °C
M. tuberculosis InhA; [3]
  IC50: 84 nM
M. tuberculosis InhA
  inhibition at 10 µM: 100%

## O=C(Cn1cc(-c2ccccc2)nn1)Nc1ccccc1 [Lead structure D]
[1]
  MIC: 0.08 µg/mL (≈ 0.287 µM)

## Clc1ccc(OCc2cn(Cc3ccc(Br)cc3)nn2)cc1 [Lead structure A]
[1]
  MIC: 5.8 µg/mL (≈ 15.3 µM)

## CC[C@H](CO)C(=O)c1ccc(OCc2ccccc2)cc1O [Lead structure B]
[2]
  IC50: 380 nM

## CC(=O)c1ccc(OCc2cn(CC(=O)Nc3ccc([N+](=O)[O-])cc3)nn2)cc1 [Compound 10, 2-(4-((4-Acetylphenoxy)methyl)-1H-1,2,3-triazol-1-Yl)-N-(4-nitrophenyl)acetamide]
other
  melting point: 185 to 186 °C
M. tuberculosis InhA
  IC50: 8 nM
  inhibition at 10 µM: 100%

## CC(=O)c1ccc(OCc2cn(CC(=O)Nc3ccc(Cl)c(Cl)c3)nn2)cc1 [Compound 11, 2-(4-((4-Acetylphenoxy)methyl)-1H-1,2,3-triazol-1-Yl)-N-(3,4-dichlorophenyl)acetamide]
other
  melting point: 205 to 206 °C
M. tuberculosis InhA; [3]
  IC50: 43 nM
M. tuberculosis InhA
  inhibition at 10 µM: 100%

## COc1ccc(CNC(=O)Cn2cc(COc3ccc(C(C)=O)cc3)nn2)cc1 [Compound 14, 2-(4-((4-Acetylphenoxy)methyl)-1H-1,2,3-triazol-1-Yl)-N-(4-methoxybenzyl)acetamide]
other
  melting point: 125 to 126 °C
M. tuberculosis InhA
  IC50: 2 nM
  inhibition at 10 µM: 100%

## CC(=O)c1ccc(OCc2cn(CC(=O)Nc3ccccc3F)nn2)cc1 [Compound 9, 2-(4-((4-Acetylphenoxy)methyl)-1H-1,2,3-triazol-1-Yl)-N-(2-fluorophenyl)acetamide]
other
  melting point: 179 to 180 °C
M. tuberculosis InhA
  IC50: 5 nM
  inhibition at 10 µM: 100%
